Assay results as given in PMC7215574, “Development of Thiazolidinones as Fungal Carbonic Anhydrase Inhibitors” (International Journal of Molecular Sciences, 2020).
Read-outs that look alike come from different tables or passages of the source.

Experiments:
Assay in all cases: microbe, parasite or virus in culture
Set-up in all cases: species or system clinical Candida isolates; CLSI broth microdilution MIC, Sabouraud dextrose broth, 35 °C, visual complete growth inhibition
[1] = test system: T1, C. parapsilosis 2 strains; settings: Lodderomyces parapsilosis, 24 h, read-out: Tested Fungi (MIC Values μg/mL) / C. parapsilosis 2 strains
T1 construct: 2 clinical isolates
Procedure: (§1) The in vitro antifungal activities were determined by the broth microdilution method with sabouraud dextrose broth (BBL Microbiology Systems, Cockeysville, MD, USA), as recommended by the by the CLSI [43]. Ninety-six-well polystyrene microtitre plates containing serial dilutions of each compound were inoculated with each microorganism to yield the appropriate density (1–5 × 10^3 cells/mL) in a 100-μL final volume. Each plate included (i) fungi without the addition of the compound, (ii) just the medium, and (iii) just the compound. Topical and systemic antifungal reference drugs, clotrimazole and fluconazole, were inserted in the experiment. The plates were incubated for 24 h at 35 °C. […] Three independent experiments were performed in triplicate. The antimicrobial activity of these thiazolidinones was evaluated versus 24 clinical Gram-positive (S. aureus and S. epidermidis) and Gram-negative (E. coli and Enterobacter spp.) microorganisms. The antifungal activity of these derivatives was then tested versus 16 clinical fungal isolates belonging to the most relevant Candida spp. (C. albicans, C. tropicalis, C. parapsilosis, C. sakè, and C. glabrata). Prior to testing, each isolate was cultured on a selective medium to ensure purity and optimal growth, as previously reported. The isolates were routinely identified by the morphological aspects of colonies and by biochemical identification. The used clinical isolates were collected from specimens of patients at the ‘Azienda Policlinico Umberto I’ (Sapienza University of Rome) and were obtained from hematology/oncology and surgery departments, which also included an intensive care unit. In particular, the samples were isolated from the upper and lower respiratory tract, blood, and indwelling venous catheters; the isolates were identified by conventional methodologies. Participating subjects gave their written informed consent for this study.

C. glabrata 3 strains = test system: T2, C. glabrata 3 strains; settings: Nakaseomyces glabratus, 24 h, read-out: Tested Fungi (MIC Values μg/mL) / C. glabrata 3 strains / 8–32
T2 construct: 3 clinical isolates
Procedure: as §1

C. tropicalis 3 strains = test system: T3, C. tropicalis 3 strains; settings: Candida tropicalis, 24 h, read-out: Tested Fungi (MIC Values μg/mL) / C. tropicalis 3 strains
T3 construct: 3 clinical isolates
Procedure: as §1

C. albicans 5 strains = test system: T4, C. albicans 5 strains; settings: Candida albicans, 24 h
T4 construct: 5 clinical isolates
Procedure: as §1

[2] = test system: T5, Candida sake C. sakè 3 strains; settings: Fermentozyma sake, 24 h; read-out: Tested Fungi (MIC Values μg/mL) / C. sakè 3 strains / 8–32
T5 construct: 3 clinical isolates
Procedure: as §1

Measured: MIC

Clc1ccccc1C(c1ccccc1)(c1ccccc1)n1ccnc1 [Clotrimazole]
2 µg/mL: [1] | C. glabrata 3 strains | C. tropicalis 3 strains | C. albicans 5 strains; read-out: Tested Fungi (MIC Values μg/mL) / C. albicans 5 strains / 8–32 / 32–128 | [2]

OC(Cn1cncn1)(Cn1cncn1)c1ccc(F)cc1F [Fluconazole]
2 µg/mL: [1] | C. glabrata 3 strains | C. tropicalis 3 strains | C. albicans 5 strains; read-out: Tested Fungi (MIC Values μg/mL) / C. albicans 5 strains / 32–128 | [2]
